From ChEMBL document CHEMBL1201862, “PubChem BioAssay data set” (2004)
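Method: 48-hour compound exposure of cells in 96-well plates, five concentrations, linear interpolation of endpoints. GI50 = concentration required for 50% inhibition of growth.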 Active and inactive are the calls of the source. Cut-off read from the data, not from the text of the source: active = GI50 up to about 1.1 µM and inactive = higher.

Assays:
Experiment in all cases: DTP human tumour cell line panel, 48 h
ACHN = tested on: ACHN
BT-549 = tested on: BT-549
CAKI-1 = tested on: CAKI-1
HOP-62 = tested on: HOP-62
HT-29 = tested on: HT-29
IGROV-1 = tested on: IGROV-1
K562 = tested on: K562
M14 = tested on: M14
Malme-3M = tested on: Malme-3M
NCI-H23 = tested on: NCI-H23
NCI-H522 = tested on: NCI-H522
OVCAR-4 = tested on: OVCAR-4
RPMI-8226 = tested on: RPMI-8226
SF-295 = tested on: SF-295
SF-539 = tested on: SF-539
SK-OV-3 = tested on: SK-OV-3
SN12C = tested on: SN12C
SNB-75 = tested on: SNB-75
UO-31 = tested on: UO-31
SNB-19 = tested on: SNB-19

Measured: GI50

COc1cccc2c1OC1c3ccccc3OCC1(O)C2 (configuration not stated)
inactive: ACHN > 100 µM | BT-549 > 100 µM | CAKI-1 > 100 µM | HOP-62 > 100 µM | HT-29 > 100 µM | IGROV-1 > 100 µM | K562 > 100 µM | M14 > 100 µM | Malme-3M > 100 µM | NCI-H23 > 100 µM | NCI-H522 > 100 µM | OVCAR-4 > 100 µM | RPMI-8226 > 100 µM | SF-295 > 100 µM | SF-539 > 100 µM | SK-OV-3 > 100 µM | SN12C > 100 µM | SNB-75 > 100 µM | UO-31 > 100 µM

COC(=O)NC(Nc1ccccn1)(C(F)(F)F)C(F)(F)F
inactive: ACHN > 100 µM | BT-549 > 100 µM | CAKI-1 > 100 µM | HOP-62 > 100 µM | HT-29 > 100 µM | IGROV-1 > 100 µM | K562 > 100 µM | M14 > 100 µM | Malme-3M > 100 µM | NCI-H23 > 100 µM | NCI-H522 > 100 µM | RPMI-8226 > 100 µM | SF-539 > 100 µM | SK-OV-3 > 100 µM | SNB-19 > 100 µM | SNB-75 > 100 µM | UO-31 > 100 µM

O=C1Nc2ccc(S(=O)(=O)O)cc2/C1=C1/Nc2ccc(Br)cc2C1=O
inactive: ACHN > 100 µM | BT-549 > 100 µM | CAKI-1 > 100 µM | HOP-62 > 100 µM | HT-29 > 100 µM | IGROV-1 19.1 µM | K562 > 100 µM | M14 > 100 µM | Malme-3M > 100 µM | NCI-H23 > 100 µM | NCI-H522 > 100 µM | OVCAR-4 > 100 µM | RPMI-8226 > 100 µM | SF-295 > 100 µM | SK-OV-3 > 100 µM | SN12C > 100 µM | SNB-19 > 100 µM | SNB-75 > 100 µM | UO-31 > 100 µM

CC12c3c4cccc3Oc3cc(N)cc(c31)Oc1cc(N)cc(c12)O4
inactive: ACHN 11.1 µM | BT-549 3.84 µM | CAKI-1 9.86 µM | HOP-62 5.75 µM | HT-29 2.01 µM | IGROV-1 3.44 µM | K562 4.18 µM | M14 4.55 µM | Malme-3M 2.99 µM | NCI-H23 8.43 µM | NCI-H522 2.24 µM | OVCAR-4 10.4 µM | RPMI-8226 5.93 µM | SF-295 2.53 µM | SF-539 2.96 µM | SK-OV-3 4.11 µM | SN12C 8.28 µM | SNB-19 7.14 µM | SNB-75 3.77 µM | UO-31 17.7 µM

CN1B(c2ccccc2)N(C)C(=O)N(C)C1=O
inactive: ACHN > 100 µM | BT-549 > 100 µM | CAKI-1 52.2 µM | HT-29 > 100 µM | IGROV-1 > 100 µM | K562 > 100 µM | M14 > 100 µM | Malme-3M > 100 µM | NCI-H23 > 100 µM | RPMI-8226 > 100 µM | SF-295 > 100 µM | SF-539 > 100 µM | SK-OV-3 > 100 µM | SN12C > 100 µM | SNB-19 > 100 µM | SNB-75 18.4 µM | UO-31 20.5 µM
